Reference: US11148990B2 (JOST CHEMICAL CO., priority 2019, dated 2021)

Legend:
Format in all cases: physicochemical
[1] = Compressibility: tablets on instrumented Carver press, no excipients, three-point bend stress; settings: current experimental conditions
Experimental: Compressibility of a second sample of magnesium citrate glycinate was evaluated using an instrumented Carver press. Approximately 1.6 g, 5 mm thick tablets were compressed using the 0.4″×0.9″ rectangular tooling. No excipients were used. The sides of the tooling were slightly dusted with magnesium stearate in order to facilitate tablet ejection and eliminate sticking. The tablets were subjected to a three-point bend stress using a TA.XT2-Plus texture analyzer (from Stable Micro Systems of Surrey, England). Flexural strength and young modulus of the compact were measured. In addition, compact density was calculated from the weight and size measurements of the tablets.
An attempt was made to compare compressibility of magnesium citrate glycinate with those of individual salts, magnesium citrate tribasic and magnesium bis-glycinate.

[2] = Aqueous stability of 10% w/w solution standing for 24 hours, visual inspection; settings: 10% w/w solution in water
[3] = Apparent density measurement
Experimental: In addition, particle size distribution and apparent density of di-magnesium citrate glycinate co-salt were measured.

Row | Structure (SMILES) | Compressibility, tablet formation [1] | Aqueous stability, change of clear and colorless solution [2] | Apparent density [3] [kg/m^3]
1 | NCC(=O)[O-].NCC(=O)[O-].[Mg+2] [magnesium bis-glycinate] | no cohesive tablets were obtained |  | 
2 | NCC(=O)[O-].O=C([O-])CC(O)(CC(=O)[O-])C(=O)[O-].[Mg+2].[Mg+2] [magnesium citrate glycinate co-salt] |  | no change | 1740
3 | O=C([O-])CC(O)(CC(=O)[O-])C(=O)[O-].O=C([O-])CC(O)(CC(=O)[O-])C(=O)[O-].[Mg+2].[Mg+2].[Mg+2] [magnesium citrate tribasic] | no cohesive tablets were obtained |  | 
